Experimental data reported in patent publication US20250084056A1, “SUBSTITUTED OXOISOINDOLINYL PIPERIDINE-2,6-DIONE COMPOUNDS” (BRISTOL-MYERS SQUIBB COMPANY, priority 2023, published 2025).

Legend:
Format in all cases: cell-based
Phospho-Rb (Ser807/811) = experiment: Phospho-Retinoblastoma (pRB) Cellular Assay; conditions: Homo sapiens, OVCAR-3, NIH OVCAR3 cells, 24 hours; for IC50: concentration giving 50% response; for Emax: maximum response, reference compound at 10 μM = 100%, read-out: pRB Ymax
Protocol: Phospho-Retinoblastoma (pRB) Cellular Assay
NIH OVCAR3 (HTB-161, American Type Culture Collection, Manassas VA) cells were grown up to passage 10 in culture media made up of RPMI (11835-030 Gibco, Grand Island NY), 20% HI FBS (16140-071, Gibco, Grand Island NY), and 0.01 mg/mL insulin from bovine pancreas (I6634-1G, Sigma Aldrich, St. Louis, MO).
The cells were seeded in a 384-well CulturPlate (6007688, Perkin Elmer, Waltham MA) at a density of 10,000 cells/well in 20 μL of the above culture media and incubated overnight at 37° C. and 5% CO2.
The next day, cells were treated using an Echo 650 (Beckman Coulter, Indianapolis IN) acoustic dispenser with 40 nL of compounds dissolved in DMSO at the appropriate serial dilutions (10 mM to […]). Cells were then incubated for 24 hours as above.
After 24 hours elapsed, media was removed from each well and shortly after 20 μL of the following mix was added: 12 μL deionized water, 4 μL lysis buffer, 4 μL of reconstituted antibody mix, and 1:100 phosphatase inhibitor. These components belong to the Phospho-Rb (Ser807/811) Cellular Kit (64RBS807PEY, Perkin Elmer, Waltham MA).
Plates were sealed and incubated away from light at room temperature for at least 4 hours before reading them on an EnVision plate reader (Perkin Elmer, Waltham MA) according to the kit manufacturer's protocol. The reference compound, N-(5-{[(5-tert-butyl-1,3-oxazol-2-yl)methyl]sulfanyl}-1,3-thiazol-2-yl)piperidine-4-carboxamide, at 10 μM was used to define 100% response. Assay results for each compound were reported as IC50, the concentration giving 50% response, and Ymax, the maximum response observed with the compound.

Cyclin E1 = Cyclin E1 (Homo sapiens, UniProt P24864+Q96SW2); experiment: Cyclin E1 Cellular Degradation Assay (MSD); set-up: endogenous in cells; host or cells: OVCAR3; conditions: for DC50 / Dmax: Cyclin E1 cellular degradation; for Dmax: maximum degradation; for Ratio of GSPT1 DC50/Cyclin E1 DC50: selectivity for degradation of Cyclin E1 over GSPT1
Protocol: Culturing cells: On Day 0, OVCAR3 cells were plated at 15,000 cells/well in 40 μL of culture medium (RPMI1640, 20% FBS, 0.01 insulin, 1% Anti/Anti) in a 384 well cell culture plate. Cell cultures were incubated for 24 hours at 37° C. and 5% CO2.
Coating MSD plates: On Day 1, rabbit anti-CCNE1 antibody (Abcam ab33911, 1 μg/mL in DPBS, […]) was dispensed to a Meso Scale Discovery plate (MSD L21XA). The MSD plate was spun briefly to ensure the solution coated the bottom of the well and incubated overnight at 4° C. On Day 2, the plate was washed 3 times with TBS +0.2% TWEEN, blocked for 1 hour with 3% MSD Blocker A (MSD R93AA-1, 30 μL/well), then washed again 3 times with TBS+0.2% TWEEN.
Treating and lysing cells: On Day 1, compounds of interest were dispensed into the cell cultures by acoustic dispensing technology. The cell cultures were then spun at 400 g for 4 minutes to disperse the compounds and incubated at 37° C. and 5% CO2 for 24 hours. After incubation, 40 μL of DPBS was added to the cell cultures to dilute the media. All liquid was gently discarded and immediately replaced with 30 μL of lysis buffer (MSD Tris Lysis buffer (MSD R60TX-2), Halt Protease inhibitor (ThermoFisher 78438), Phosphatase Inhibitor II (Sigma-Aldrich P5726), Phosphatase Inhibitor III (Sigma-Aldrich P0044), 0.02M PMSF (Sigma-Aldrich 7626), 0.1% SDS (VWR E719-100ML)). The plate was then sealed, shaken at 300 rpm at room temperature for 5 minutes, and freeze-thawed for optimum cell lysis.
Collecting data: After thawing, 25 μL of lysate was transferred to a coated MSD plate. The plate was then sealed and shaken at 300 rpm overnight in 4° C. On Day 3, the MSD plate was washed 3 times with TBS+0.2% TWEEN. Mouse anti-CCNE1 antibody (Abcam ab238081, 0.5 μg/mL in 1% MSD Blocker A, 10 μL/well) dispensed to the MSD plate, which was then sealed and shaken at room temperature for 3 hours. After the first antibody incubation, the plate was washed 3 times with TBS+0.2% TWEEN, then goat anti-mouse Sulfo-Tag antibody (MSD R32AC, 1 μg/mL in 1% MSD Blocker A, 10 μL/well) was dispensed to the MSD plate. The plate was sealed again and shaken at room temperature for 1 hour, then washed 3 times with TBS+0.2% TWEEN. After the final wash, 35 μL of 1× Read Buffer (MSD R92TC-1) was added to each well and the data was captured using the MSD plate reader. The reference compound, [2-(2,6-dioxopiperidin-3-yl)-4-methoxy-3-oxo-2,3-dihydro-1H-isoindol-5-yl]methyl N-[4-(3,4-difluorophenoxy)phenyl]carbamate, at […] was used to define […]. Assay results for each compound were reported as DC50, the concentration giving 50% response, and Dmax, the maximum response observed with the compound.

GSPT1 = GSPT1 (Homo sapiens, UniProt P15170+Q96SW2); experiment: GSPT1 Cellular Degradation Assay (DF15-GSPT1-ePL); set-up: expressed in transfected cells; conditions: DF15-GSPT1-ePL cells, 20 hours
Source text: DF15-GSPT1-ePL was used for intracellular GSPT1 protein degradation detection in form of chemiluminescent signal, which was built on a human DF15 cell line (CVCL_Y429) with conditional co-expression of chimeric GSPT1 (target) and ePL/donor (enhanced ProLabel® by DiscoverX for enzyme fragment complementation with donor-acceptor pairing). The cells used the culture medium in two arrangements for assay and maintenance. During assay, it used Core-RPMI 1640 medium with 10% Fetal Bovine Serum (Heat Inactivated) and 1× Penicillin/Streptomycin; and during passage maintenance, used added ingredients: 0.1 mM NEAA, 1 mM sodium pyruvate, 25 mM Hepes, 0.1% Pluronic F-68, 1× Glutamin, 4 μg/mL Blasticidin (selection agent). Detection was performed on a 1536 well tissue culture plate (Corning #3727) with cells seeded in 3.5 μL core-RPMI 1640 at density of 0.25 million/mL after the pre-titrated test compounds in DMSO on ECHO plate were dispensed onto the assay plate by use of ECHO (liquid handing system via acoustic energy from Labcyte). Assay incubation lasted 20 hours in 37° C. incubator with 5% CO2; then followed by 30 minutes of plate-cooling at room temperature; then detection-reagent-mix was added in 3.5 μL/well with pre-defined proportion of enzyme acceptor, substrate, and lysis buffer. Plate signal reading for luminescence on an EnVision plate reader (PerkinElmer) was conducted after 60 minutes of former step at room temperature. Raw data was collected and processed with Dotmatics (data analyzer) for test compound's potency values. The reference compound, 3-[5-(3,6-dimethoxyisoquinolin-1-yl)-1-oxo-2,3-dihydro-1H-isoindol-2-yl]piperidine-2,6-dione, at […] was used to define 75% response. Assay results for each compound were reported as DC50, the concentration giving 50% response, and Dmax, the maximum response observed with the compound.

Chain of GSPT1 (P15170 whole entry, the tested form may be a part): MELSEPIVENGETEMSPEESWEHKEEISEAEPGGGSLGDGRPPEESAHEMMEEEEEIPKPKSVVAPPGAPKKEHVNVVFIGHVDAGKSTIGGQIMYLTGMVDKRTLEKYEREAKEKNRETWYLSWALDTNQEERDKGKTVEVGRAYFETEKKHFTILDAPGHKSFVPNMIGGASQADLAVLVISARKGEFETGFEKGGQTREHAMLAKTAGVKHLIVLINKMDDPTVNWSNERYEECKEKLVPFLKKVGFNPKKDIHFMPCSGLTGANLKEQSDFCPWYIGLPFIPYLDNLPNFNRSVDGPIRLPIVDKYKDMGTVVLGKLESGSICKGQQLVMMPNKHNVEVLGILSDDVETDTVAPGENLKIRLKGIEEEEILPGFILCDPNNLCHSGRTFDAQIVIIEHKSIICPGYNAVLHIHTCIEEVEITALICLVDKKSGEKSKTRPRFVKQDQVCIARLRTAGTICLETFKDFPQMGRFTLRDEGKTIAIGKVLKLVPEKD
Chain of GSPT1 (Q96SW2 whole entry, the tested form may be a part): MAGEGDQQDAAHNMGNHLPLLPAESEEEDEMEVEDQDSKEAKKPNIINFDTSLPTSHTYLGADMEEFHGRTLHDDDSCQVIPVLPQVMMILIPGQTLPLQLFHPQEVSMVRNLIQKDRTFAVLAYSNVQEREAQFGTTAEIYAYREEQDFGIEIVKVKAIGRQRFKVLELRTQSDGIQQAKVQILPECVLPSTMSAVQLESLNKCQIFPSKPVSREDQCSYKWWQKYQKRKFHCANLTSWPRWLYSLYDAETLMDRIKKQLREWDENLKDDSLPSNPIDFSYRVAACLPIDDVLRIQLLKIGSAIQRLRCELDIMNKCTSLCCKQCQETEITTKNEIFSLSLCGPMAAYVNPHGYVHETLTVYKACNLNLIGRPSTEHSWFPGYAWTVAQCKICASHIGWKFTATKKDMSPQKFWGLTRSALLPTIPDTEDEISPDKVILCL
Chain of GSPT1 (Q16531 whole entry partner, the tested form may be a part): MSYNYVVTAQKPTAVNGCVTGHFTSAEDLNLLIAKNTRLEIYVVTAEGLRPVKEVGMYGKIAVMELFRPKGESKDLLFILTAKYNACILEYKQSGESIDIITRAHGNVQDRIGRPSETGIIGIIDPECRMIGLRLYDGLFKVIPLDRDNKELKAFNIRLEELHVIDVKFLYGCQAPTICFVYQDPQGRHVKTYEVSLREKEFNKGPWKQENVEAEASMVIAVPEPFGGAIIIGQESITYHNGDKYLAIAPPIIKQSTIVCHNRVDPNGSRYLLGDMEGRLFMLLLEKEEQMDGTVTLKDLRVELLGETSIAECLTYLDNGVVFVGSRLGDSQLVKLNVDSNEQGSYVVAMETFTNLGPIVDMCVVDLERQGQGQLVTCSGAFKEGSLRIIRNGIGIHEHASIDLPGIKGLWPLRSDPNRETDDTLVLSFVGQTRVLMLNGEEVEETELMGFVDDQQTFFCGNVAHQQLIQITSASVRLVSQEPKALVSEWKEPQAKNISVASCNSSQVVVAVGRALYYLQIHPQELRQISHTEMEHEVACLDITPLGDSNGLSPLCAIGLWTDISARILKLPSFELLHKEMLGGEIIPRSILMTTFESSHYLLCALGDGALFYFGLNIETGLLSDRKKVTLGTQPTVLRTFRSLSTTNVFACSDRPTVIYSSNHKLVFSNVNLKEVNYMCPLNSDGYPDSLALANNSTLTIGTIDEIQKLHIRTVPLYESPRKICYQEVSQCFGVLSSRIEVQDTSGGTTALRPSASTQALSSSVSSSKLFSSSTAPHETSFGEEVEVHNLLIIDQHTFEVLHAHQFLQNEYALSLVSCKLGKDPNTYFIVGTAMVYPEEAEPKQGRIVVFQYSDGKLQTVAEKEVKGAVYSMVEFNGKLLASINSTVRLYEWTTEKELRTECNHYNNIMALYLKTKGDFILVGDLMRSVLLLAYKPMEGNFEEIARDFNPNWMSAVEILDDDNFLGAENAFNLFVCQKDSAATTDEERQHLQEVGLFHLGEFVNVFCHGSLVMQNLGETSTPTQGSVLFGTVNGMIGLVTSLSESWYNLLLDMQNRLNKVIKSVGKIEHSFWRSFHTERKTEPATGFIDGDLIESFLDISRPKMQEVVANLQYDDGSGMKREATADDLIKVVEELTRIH
Chain of Cyclin E1 (P24864 whole entry): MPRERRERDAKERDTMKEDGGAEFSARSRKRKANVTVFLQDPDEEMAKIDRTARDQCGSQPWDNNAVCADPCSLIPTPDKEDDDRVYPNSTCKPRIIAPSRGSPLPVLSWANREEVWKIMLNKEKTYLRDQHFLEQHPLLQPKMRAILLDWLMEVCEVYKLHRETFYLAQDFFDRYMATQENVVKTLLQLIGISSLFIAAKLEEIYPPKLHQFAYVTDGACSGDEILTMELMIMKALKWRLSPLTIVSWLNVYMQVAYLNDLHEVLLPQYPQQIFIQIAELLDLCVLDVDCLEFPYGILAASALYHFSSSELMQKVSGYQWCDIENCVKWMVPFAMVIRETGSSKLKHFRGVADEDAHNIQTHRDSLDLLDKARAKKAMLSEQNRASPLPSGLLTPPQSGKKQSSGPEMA
Chain of Cyclin E1 (Q96SW2 whole entry): as the sequence (Q96SW2 whole entry, the tested form may be a part) above
Chain of Cyclin E1 (Q16531 whole entry partner): as the sequence (Q16531 whole entry partner, the tested form may be a part) above

Row | Compound | IC50 (Phospho-Rb (Ser807/811)) | DC50 (Cyclin E1) | Dmax (Cyclin E1) | Ratio of GSPT1 DC50/Cyclin E1 DC50 (Cyclin E1) | DC50 (GSPT1) | Dmax (GSPT1) | Emax (Phospho-Rb (Ser807/811))
1 | O=C1CCC(N2Cc3ccc(COC(=O)Nc4ccc(Oc5cccc(F)c5F)cc4)c(Oc4ccccc4)c3C2=O)C(=O)N1 (stereo not shown) [Example 68, [2-(2,6-dioxopiperidin-3-yl)-3-oxo-4-phenoxy-2,3-dihydro-1H-isoindol-5-yl]methyl N-[4-(2,3-difluorophenoxy)phenyl]carbamate] | 83 nM | 179 nM | 107% | >78 | > 14000 nM | 16% | 127%
2 | COc1c(COC(=O)Nc2ccc(C(C)(C)c3ccccc3)cc2)ccc2c1C(=O)N(C1CCC(=O)NC1=O)C2 (stereo not shown) [Example 41, [2-(2,6-dioxopiperidin-3-yl)-4-methoxy-3-oxo-2,3-dihydro-1H-isoindol-5-yl]methyl N-[4-(2-phenylpropan-2-yl)phenyl]carbamate] | 248 nM | 336 nM | 92% | >42 | > 14000 nM | 13% | 100%
3 | COc1c(COC(=O)Nc2ccc(Oc3cccc(F)c3F)cc2F)ccc2c1C(=O)N(C1CCC(=O)NC1=O)C2 (stereo not shown) [Example 22, [2-(2,6-dioxopiperidin-3-yl)-4-methoxy-3-oxo-2,3-dihydro-1H-isoindol-5-yl]methyl N-[4-(2,3-difluorophenoxy)-2-fluorophenyl]carbamate] | 263 nM | 26 nM | 109% | 431 | 11400 nM | 57% | 97%
4 | COc1cc(Oc2ccc(F)c(F)c2)ccc1NC(=O)OCc1ccc2c(c1OC)C(=O)N(C1CCC(=O)NC1=O)C2 (stereo not shown) [Example 47, [2-(2,6-dioxopiperidin-3-yl)-4-methoxy-3-oxo-2,3-dihydro-1H-isoindol-5-yl]methyl N-[4-(3,4-difluorophenoxy)-2-methoxyphenyl]carbamate] | 361 nM | 320 nM | 101% | >44 | > 14000 nM | 20% | 107%

Continued, in another order:

Row | IC50 (Phospho-Rb (Ser807/811)) | DC50 (Cyclin E1) | Dmax (Cyclin E1) | Ratio of GSPT1 DC50/Cyclin E1 DC50 (Cyclin E1) | DC50 (GSPT1) | Dmax (GSPT1) | Compound | Emax (Phospho-Rb (Ser807/811))
5 | 16 nM | 30 nM | 105% | >474 | > 14000 nM | 0% | O=C1CCC(N2Cc3ccc(COC(=O)Nc4ccc(Oc5cc(F)cc(F)c5)cc4F)c(OC4CCOCC4)c3C2=O)C(=O)N1 (stereo not shown) [Example 140, [2-(2,6-dioxopiperidin-3-yl)-4-(oxan-4-yloxy)-3-oxo-2,3-dihydro-1H-isoindol-5-yl]methyl N-[4-(3,5-difluorophenoxy)-2-fluorophenyl]carbamate] | 132%
6 | 187 nM | 221 nM | 107% | >63 | > 14000 nM | 19% | O=C1CCC(N2Cc3ccc(COC(=O)Nc4ccc(Oc5ccc(F)c(F)c5)cc4)c(OC4COC4)c3C2=O)C(=O)N1 (stereo not shown) [Example 129, [2-(2,6-dioxopiperidin-3-yl)-4-(oxetan-3-yloxy)-3-oxo-2,3-dihydro-1H-isoindol-5-yl]methyl N-[4-(3,4-difluorophenoxy)phenyl]carbamate] | 117%
7 | 479 nM | 200 nM | 100% | >70 | > 14000 nM | 10% | COc1c(COC(=O)Nc2ccc(Oc3ccccc3C(F)(F)F)cc2Cl)ccc2c1C(=O)N(C1CCC(=O)NC1=O)C2 (stereo not shown) [Example 90, [2-(2,6-dioxopiperidin-3-yl)-4-methoxy-3-oxo-2,3-dihydro-1H-isoindol-5-yl]methyl N-{2-chloro-4-[2-(trifluoromethyl)phenoxy]phenyl}carbamate] | 103%
